Reference: US8404708B2, “Dual NK1/NK3 receptor antagonists” (Hoffmann-La Roche Inc., priority 2004, dated 2013)
Read-outs that look alike come from different tables or passages of the source.

Assays:
[1] = phase II trial, cited from earlier work
[2] = target: T1, Recombinant human NK3 (hNK3) receptor (Homo sapiens, UniProt P29371); experiment: NK3 receptor binding, [3H]SR142801 displacement, membrane preparations
T1 construct: expressed in transfected cells
T1 sequence (P29371 1-465): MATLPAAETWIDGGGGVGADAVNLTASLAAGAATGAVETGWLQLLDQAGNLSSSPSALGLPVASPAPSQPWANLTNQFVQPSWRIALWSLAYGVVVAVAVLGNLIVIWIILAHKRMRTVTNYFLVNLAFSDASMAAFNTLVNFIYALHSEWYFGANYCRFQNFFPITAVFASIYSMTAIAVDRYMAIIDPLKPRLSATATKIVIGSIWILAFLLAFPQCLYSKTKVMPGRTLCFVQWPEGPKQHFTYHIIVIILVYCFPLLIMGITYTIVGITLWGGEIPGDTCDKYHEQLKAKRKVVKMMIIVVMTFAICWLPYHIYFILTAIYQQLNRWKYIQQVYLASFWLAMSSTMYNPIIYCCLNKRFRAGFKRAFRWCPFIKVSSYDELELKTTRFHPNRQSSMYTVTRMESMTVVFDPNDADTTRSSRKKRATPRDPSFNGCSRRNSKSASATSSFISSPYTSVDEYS
How it was run: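 Room-temperature, 90-min filtration binding assay using about 2.5 μg recombinant receptor membranes per well; separation on polyethyleneimine-treated glass-fibre (GF/C) filters and liquid scintillation read-out, with 10 μM SB222200 for nonspecific binding.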

human NK1 receptor = human NK1 receptor (Homo sapiens, UniProt P25103); experiment: NK1 receptor binding, [3H]substance P displacement, CHO cell membranes
Sequence of human NK1 receptor (P25103 whole entry): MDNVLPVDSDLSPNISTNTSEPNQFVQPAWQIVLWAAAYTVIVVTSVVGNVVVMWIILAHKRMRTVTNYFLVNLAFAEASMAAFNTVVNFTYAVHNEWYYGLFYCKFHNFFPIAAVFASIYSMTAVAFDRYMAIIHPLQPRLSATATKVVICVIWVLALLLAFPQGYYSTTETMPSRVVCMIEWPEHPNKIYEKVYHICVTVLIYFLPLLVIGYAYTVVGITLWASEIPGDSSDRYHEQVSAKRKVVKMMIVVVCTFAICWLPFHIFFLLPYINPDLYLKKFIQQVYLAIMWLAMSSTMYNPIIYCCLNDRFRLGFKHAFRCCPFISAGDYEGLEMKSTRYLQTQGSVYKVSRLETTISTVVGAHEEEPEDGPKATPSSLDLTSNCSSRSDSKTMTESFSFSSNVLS

[3] = second value of the cell pKi NK1/NK3, hNK3 receptor, [3H]SR142801
[4] = first value of the cell pKi NK1/NK3, human NK1 receptor, [3H]substance P

Ki [2, 3] | Ki (human NK1 receptor; [4]) | SMILES | further results
– | – | CC(=O)N(C)C1(c2ccccc2)CCN(CCC[C@]2(c3ccc(Cl)c(Cl)c3)CCCN(C(=O)c3ccccc3)C2)CC1 [SR 142,801, Osanetant] | activity on positive symptoms of schizophrenia ([1]; altered behavior, delusion, hallucinations, extreme emotions, excited motor activity, incoherent speech): active; activity in the treatment of negative symptoms of schizophrenia ([1]; depression, anhedonia, social isolation, memory and attention deficits): inactive
– | – | CN(C(=O)C(C)(C)c1cc(C(F)(F)F)cc(C(F)(F)F)c1)c1cnc(NCCO)cc1-c1ccccc1Cl [Example 67, 2-(3,5-Bis-trifluoromethyl-phenyl)-N-[4-(2-chloro-phenyl)-6-(2-hydroxy-ethylamino)-pyridin-3-yl]-N-methyl-isobutyramide] | pKi NK3 [2, 3]: 7.94; melting point: 117 to 118 °C
13.8 nM | 2.82 nM | CN(C(=O)C(C)(C)c1cc(C(F)(F)F)cc(C(F)(F)F)c1)c1cnc(NC[C@H](O)CO)cc1-c1ccccc1Cl [Example 125, (S)-2-(3,5-Bis-trifluoromethyl-phenyl)-N-[4-(2-chloro-phenyl)-6-(2,3-dihydroxy-propylamino)-pyridin-3-yl]-N-methyl-isobutyramide] | –
8.71 nM | 1.29 nM | Cc1cc(F)ccc1-c1cc(NCCO)ncc1N(C)C(=O)C(C)(C)c1cc(Cl)cc(Cl)c1 [Example 21, 2-(3,5-Dichloro-phenyl)-N-[4-(4-fluoro-2-methyl-phenyl)-6-(2-hydroxy-ethylamino)-pyridin-3-yl]-N-methyl-isobutyramide] | –
9.33 nM | 1.7 nM | CC(=O)N(C)[C@@H]1CCN(c2cc(-c3ccc(F)cc3C)c(N(C)C(=O)C(C)(C)c3cc(C(F)(F)F)cc(C(F)(F)F)c3)cn2)C1 [Example 101, (R)-N-[6-[3-(Acetyl-methyl-amino)-pyrrolidin-1-yl]-4-(4-fluoro-2-methyl-phenyl)-pyridin-3-yl]-2-(3,5-bis-trifluoromethyl-phenyl)-N-methyl-isobutyramide] | –
– | – | Cc1cc(F)ccc1-c1cc(N2C[C@@H](O)C[C@@H]2CO)ncc1N(C)C(=O)C(C)(C)c1cc(C(F)(F)F)cc(C(F)(F)F)c1 [Example 259, (2R,4S)-2-(3,5-Bis-trifluoromethyl-phenyl)-N-[4-(4-fluoro-2-methyl-phenyl)-6-(4-hydroxy-2-hydroxymethyl-pyrrolidin-1-yl)-pyridin-3-yl]-N-methyl-isobutyramide] | Ki ([2]; second value of the cell NK1/NK3, read-out: pKi NK3 (converted)): 15.1 nM; Ki (human NK1 receptor; first value of the cell NK1/NK3, read-out: pKi NK1 (converted)): 1.66 nM
3.63 nM | 6.46 nM | Cc1cc(C)cc(C(C)(C)C(=O)N(C)c2cnc(N3CCC[C@H]3CO)cc2-c2ccccc2Cl)c1 [Example 9, (S)-N-[4-(2-Chloro-phenyl)-6-(2-hydroxymethyl-pyrrolidin-1-yl)-pyridin-3-yl]-2-(3,5-dimethyl-phenyl)-N-methyl-isobutyramide] | –
